Measurements reported in patent US20250127169A1, “PLANTS HAVING INCREASED TOLERANCE TO HERBICIDES” (BASF Agricultural Solutions Seed US LLC, priority 2021, published 2025).
Where “and” joins values, the source holds several entries; their conditions need not be identical. Identical values can stand only once.

What was measured:
[1] = target: PPO2 AMATU L397Q, F420M (variant based on SEQ ID NO: 1) (Amaranthus tuberculatus, UniProt Q0NZW9, F420M/L397Q); assay: biochemical
[2] = target: PPO2 AMATU L397E, F420V (variant based on SEQ ID NO: 1) (Amaranthus tuberculatus, UniProt Q0NZW9, F420V/L397E); assay: biochemical

COC(=O)C(OC)Oc1ccccc1Oc1cc(-n2c(=O)cc(C(F)(F)F)n(C)c2=O)c(F)cc1Br (stereo not drawn) [phenyluracil 1, methyl 2-[2-[2-bromo-4-fluoro-5-[3-methyl-2,6-dioxo-4-(trifluoromethyl)pyrimidin-1-yl]phenoxy]phenoxy]-2-methoxy-acetate]
IC50 [1]: 357 nM and 354 nM
IC50 [2]: 5790 nM and 5450 nM

CCOC(=O)C(OC)Oc1ccccc1Oc1cc(-n2c(=O)cc(C(F)(F)F)n(C)c2=O)c(F)cc1Br (stereo not drawn) [phenyluracil 2, ethyl 2-[2-[2-bromo-4-fluoro-5-[3-methyl-2,6-dioxo-4-(trifluoromethyl)pyrimidin-1-yl]phenoxy]phenoxy]-2-methoxy-acetate]
IC50 [1]: 159 nM
IC50 [2]: 6790 nM

COC(Oc1ccccc1Oc1cc(-n2c(=O)cc(C(F)(F)F)n(C)c2=O)c(F)cc1Br)C(=O)O (stereo not drawn) [phenyluracil 3, 2-[2-[2-bromo-4-fluoro-5-[3-methyl-2,6-dioxo-4-(trifluoromethyl)pyrimidin-1-yl]phenoxy]phenoxy]-2-methoxy-acetic acid]
IC50 [1]: 143 nM
IC50 [2]: 2810 nM
